Measurements published in article PMC8802628, “Selective activation of PFKL suppresses the phagocytic oxidative burst” (Cell, 2021).
Numbering of substitutions follows the chain as printed.

What was measured:
Assay type in all cases: biochemical
[1] = target: T1, PFKL(V545L, V582M) (PFKL−hook) (Homo sapiens, UniProt P17858, V545L/V582M); experiment: Recombinant PFKL−hook activity assay; conditions: for EC50: pH 7.5, 3.1 mM ATP, 2.5 mM F6P, mean ± SEM, read-out: EC50, activation of PFKL−hook
T1 construct: made in house; host or cells: Sf9 insect cells (baculovirus)
T1 sequence (P17858 1-780 V545L/V582M): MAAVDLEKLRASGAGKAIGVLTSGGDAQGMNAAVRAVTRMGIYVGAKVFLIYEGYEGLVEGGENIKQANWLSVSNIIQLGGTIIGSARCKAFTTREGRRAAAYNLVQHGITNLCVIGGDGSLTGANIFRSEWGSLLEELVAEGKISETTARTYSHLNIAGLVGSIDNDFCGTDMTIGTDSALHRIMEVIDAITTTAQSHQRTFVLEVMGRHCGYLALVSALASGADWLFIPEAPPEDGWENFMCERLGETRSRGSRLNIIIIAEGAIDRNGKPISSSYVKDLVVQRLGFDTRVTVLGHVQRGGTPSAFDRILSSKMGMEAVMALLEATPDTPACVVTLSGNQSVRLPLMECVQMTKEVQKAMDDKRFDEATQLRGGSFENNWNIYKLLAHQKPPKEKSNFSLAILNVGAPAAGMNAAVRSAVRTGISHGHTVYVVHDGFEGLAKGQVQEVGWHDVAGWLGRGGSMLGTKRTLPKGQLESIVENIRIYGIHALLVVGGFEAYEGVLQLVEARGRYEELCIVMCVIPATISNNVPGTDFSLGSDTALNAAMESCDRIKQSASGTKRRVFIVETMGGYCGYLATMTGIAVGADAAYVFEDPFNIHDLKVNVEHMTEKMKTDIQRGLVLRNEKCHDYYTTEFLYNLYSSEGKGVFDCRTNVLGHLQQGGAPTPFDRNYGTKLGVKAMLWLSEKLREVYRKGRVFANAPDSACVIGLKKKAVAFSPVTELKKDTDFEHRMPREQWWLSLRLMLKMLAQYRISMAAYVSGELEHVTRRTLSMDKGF
Description: (§1) Recombinant N-terminal His-tagged human PFKL (NP_002617), PFKM (NP_000280), and PFKP (NM_002627.4) were generated as described ([Webb et al., 2015], [2017]). Point mutants of PFK1 were generated using the QuikChange Lightning kit (Aligent).
(§2) His-tagged PFK1 was expressed and purified as described with slight modifications ([Webb et al., 2015], [2017]). Briefly, baculovirus was generated using the Bac-to-Bac Expression system (Invitrogen). PFK1 was expressed in 2-5 × 10^6 sf9 cells at a multiplicity of infection of two for 48 h. Cells were lysed in 20 mM HEPES, pH 7.5, 80 mM potassium phosphate, 1 mM 2-mercapentoethanol, 10% glycerol, 10 mM imidazole, and EDTA-free Protease Inhibitor Cocktail (Abcam) with a Dounce homogenizer. The soluble lysate was incubated with HisPur cobalt resin (ThermoFisher Scientific). The resin was washed with 5 bead volumes lysis buffer, 10 bead volumes lysis buffer containing 2 M NaCl, and 5 further bead volumes lysis buffer. PFK1 was eluted in lysis buffer containing 100 mM imidazole. Fractions containing protein were pooled, passed over a desalting column equilibrated in freezing buffer [20 mM HEPES pH 7.5, 1 mM DTT, 500 μM ammonium sulfate, 5% glycerol, 1 mM ATP, and 100 μM EDTA] and concentrated using an Amicon Ultracel-30K Centrifugal Filter Unit (MilliporeSigma). Protein was quantified using a Bradford Protein Assay kit (ThermoFisher Scientific), and aliquotes frozen in liquid nitrogen for storage at −80°C.
PFK1 activity was determined using the rate of FBP production via an auxiliary enzyme assay adapted to a 96-well format ([Brüser et al., 2012]; [Webb et al., 2015]). The auxiliary enzymes aldolase, triosephosphate isomerase, and glycerol phosphate dehydrogenase were purchased from MilliporeSigma as ammonium sulfate slurries and desalted using an Amicon Ultracel-10K Centrifugal Filter Unit. For assays containing FBP, the rate of ADP production was determined using the auxiliary enzymes pyruvate kinase (PK) and lactate dehydrogenase (LDH) (MilliporeSigma) in a buffer containing 250 μM phosphoenolpyruvic acid, […] NADH, 50 mM HEPES pH 7.5, 100 mM KCl, 1 mM DTT, and effector concentrations as described in the text. The temperature was equilibrated to 25°C for 5 min before initiating the reaction 10 mM MgCl2. Absorbance at 340 nm was measured using a Varioskan LUX Multimode microplate reader (ThermoFisher). Kinetic parameters were generated by nonlinear regression analysis using Prism (GraphPad Software) and are the mean of a minimum of three measurements from two independent preparations of protein. One unit of activity was defined as the amount of enzyme that catalyzed the formation of 1 μmol of fructose 1,6-bisphosphate per min at 25°C. […]

human PFKP = target: T2, human PFKP (Homo sapiens, UniProt Q01813); experiment: Recombinant PFKP activity assay; conditions: at concentrations up to 100 μM
T2 construct: made in house; host or cells: Sf9 insect cells (baculovirus)
T2 sequence (Q01813 whole entry): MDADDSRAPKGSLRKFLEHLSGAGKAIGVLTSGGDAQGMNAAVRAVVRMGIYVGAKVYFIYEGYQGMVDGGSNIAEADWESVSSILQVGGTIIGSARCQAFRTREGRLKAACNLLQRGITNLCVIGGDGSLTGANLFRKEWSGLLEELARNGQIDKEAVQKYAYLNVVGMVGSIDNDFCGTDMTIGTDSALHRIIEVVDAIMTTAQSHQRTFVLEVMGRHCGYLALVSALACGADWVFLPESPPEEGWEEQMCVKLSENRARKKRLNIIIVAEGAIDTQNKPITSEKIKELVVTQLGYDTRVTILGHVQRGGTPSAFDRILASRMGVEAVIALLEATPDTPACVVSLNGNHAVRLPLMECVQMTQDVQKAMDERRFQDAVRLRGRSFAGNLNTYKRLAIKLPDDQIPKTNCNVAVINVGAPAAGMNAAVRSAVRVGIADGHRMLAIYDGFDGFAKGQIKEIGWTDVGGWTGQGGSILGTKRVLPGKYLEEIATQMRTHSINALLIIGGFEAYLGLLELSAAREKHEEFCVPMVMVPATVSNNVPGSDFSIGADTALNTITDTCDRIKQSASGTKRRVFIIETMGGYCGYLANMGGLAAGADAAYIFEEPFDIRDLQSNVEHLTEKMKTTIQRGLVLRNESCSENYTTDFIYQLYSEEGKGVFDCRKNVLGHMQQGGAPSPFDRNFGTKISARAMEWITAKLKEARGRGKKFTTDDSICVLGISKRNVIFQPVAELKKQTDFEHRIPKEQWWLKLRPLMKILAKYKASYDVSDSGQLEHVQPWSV
Description: as §1
His-tagged PFK1 was expressed and purified as described with slight modifications ([Webb et al., 2015], [2017]). Briefly, baculovirus was generated using the Bac-to-Bac Expression system (Invitrogen). PFK1 was expressed in 2-5 × 10^6 sf9 cells at a multiplicity of infection of two for 48 h. […] Protein was quantified using a Bradford Protein Assay kit (ThermoFisher Scientific), and aliquotes frozen in liquid nitrogen for storage at −80°C.
PFK1 activity was determined using the rate of FBP production via an auxiliary enzyme assay adapted to a 96-well format ([Brüser et al., 2012]; [Webb et al., 2015]). […] For assays containing FBP, the rate of ADP production was determined using the auxiliary enzymes pyruvate kinase (PK) and lactate dehydrogenase (LDH) (MilliporeSigma) in a buffer containing 250 μM phosphoenolpyruvic acid, […] NADH, 50 mM HEPES pH 7.5, 100 mM KCl, 1 mM DTT, and effector concentrations as described in the text. […] Absorbance at 340 nm was measured using a Varioskan LUX Multimode microplate reader (ThermoFisher). […]

[2] = target: T3, PFKL (K315R, V545L, and V582M), PFKL3Mut (Homo sapiens, UniProt P17858, K315R/V545L/V582M); experiment: Recombinant PFKL3Mut activity assay; conditions: for activation of PFKL3Mut: 3.1 mM ATP, 1.5 mM F6P
T3 construct: made in house; host or cells: Sf9 insect cells (baculovirus)
T3 sequence (P17858 1-780 K315R/V545L/V582M): T1 sequence (P17858 1-780 V545L/V582M) with K315R
Description: as §1, §2
PFK1 activity was determined using the rate of FBP production via an auxiliary enzyme assay adapted to a 96-well format ([Brüser et al., 2012]; [Webb et al., 2015]). The auxiliary enzymes aldolase, triosephosphate isomerase, and glycerol phosphate dehydrogenase were purchased from MilliporeSigma as ammonium sulfate slurries and desalted using an Amicon Ultracel-10K Centrifugal Filter Unit. For assays containing FBP, the rate of ADP production was determined using the auxiliary enzymes pyruvate kinase (PK) and lactate dehydrogenase (LDH) (MilliporeSigma) in a buffer containing 250 μM phosphoenolpyruvic acid, […] NADH, 50 mM HEPES pH 7.5, 100 mM KCl, 1 mM DTT, and effector concentrations as described in the text. The temperature was equilibrated to 25°C for 5 min before initiating the reaction 10 mM MgCl2. Absorbance at 340 nm was measured using a Varioskan LUX Multimode microplate reader (ThermoFisher). Kinetic parameters were generated by nonlinear regression analysis using Prism (GraphPad Software) and are the mean of a minimum of three measurements from two independent preparations of protein. One unit of activity was defined as the amount of enzyme that catalyzed the formation of 1 μmol of fructose 1,6-bisphosphate per min at 25°C. Assays for PFKM were performed at pH 7.0 due to the pH-dependence of ATP inhibition ([Trivedi and Danforth, 1966]).

Q: How did the EC50 [1] turn out when `CC(=O)Nc1ccc2c(c1)OCc1cc(-c3ccccc3)nn1C2` [NA-5] was run?
A: The EC50 was 18.1 ± 3.19 nM.

Q: `COc1ccccc1-c1cc2n(n1)Cc1ccc(NC(C)=O)cc1OC2` [LDC7559, reference compound] was tested. Which “activation of PFKP” value (human PFKP) did it give?
A: Its value is “failed to activate”.

Q: With `O=C(CO)[C@@H](O)[C@H](O)[C@H](O)COP(=O)(O)O` [F6P, fructose 6-phosphate] as the molecule, how does the “Vmax,F6P” value ([1]; PFKL−hook, pH 7.5, 225 μM ATP) read?
A: Its value is 11.50 ± 0.57 micromoles FBP per minute per milligram PFK1.

Q: What about the “hF6P (Hill coefficient)” value ([1]; PFKL−hook, pH 7.5, 225 μM ATP) of the same molecule?
A: Its value is 2.87 ± 0.50.

Q: And the “Vmax,F6P” value ([2]; PFKL3Mut, pH 7.5, 225 μM ATP)?
A: The value was 17.36 ± 0.87 micromoles FBP per minute per milligram PFK1.

Q: And the “hF6P (Hill coefficient)” value ([2]; PFKL3Mut, pH 7.5, 225 μM ATP)?
A: Its value is 3.07 ± 0.87.

Q: Which EC50 [1] does the source give for `CC(=O)Nc1ccc2c(c1)OCc1cc(-c3ccccc3C#CCCCO)nn1C2` [NA-11] here?
A: The EC50 was 53.3 ± 5.77 nM.

Q: What about the “activation of PFKL3Mut” value ([2]; at 200 nM) of the same molecule?
A: The value was “no activation observed”.

Q: And the “activation of PFKL3Mut” value ([2]; at 1 μM)?
A: The value was “only partial activation observed”.

Q: What about the “activation of PFKP” value (human PFKP) of the same molecule?
A: Its value is “failed to activate”.
